Data reported in publication PMC13083723 (Patterns, 2026).

Test system: Vero-E6 cells
Assay: cells
Format: cell-based
Details: Chlorocebus sabaeus, Vero C1008, 24 h, read-out: PL_Result

Row | SMILES | activation at 10 µM
1 | CC(C)OC(=O)c1cc2c(OCC(O)CNC(C)(C)C)cccc2[nH]1 (stereo not drawn) [SPE_A15530910] | 15.8%
2 | O=C(Cn1ccnc1[N+](=O)[O-])NCCO [SPE_K96042922] | -3.79%
3 | Cc1cc(OCC(=O)O)cc(C)c1Cc1ccc(O)c(C(C)C)c1 [SPE_K85406984] | -18.6%
4 | CC(C)[C@@H](C)/C=C/[C@@H](C)[C@H]1CC[C@H]2C3=CC=C4C[C@@H](O)CC[C@]4(C)[C@H]3CC[C@]12C [SPE_K09161066] | -4.6%
5 | CC1=CC[C@@H](C(C)(C)O)C[C@@H]1O [SPE_K58262380] | -11.5%
6 | COc1cc2c(cc1OC)C(c1ccc(N)cc1)=NNC(=O)C2 [SPE_K42859542] | 0.928%
7 | CC(=O)Nc1ccc(OC[C@](C)(O)C(=O)Nc2ccc([N+](=O)[O-])c(C(F)(F)F)c2)cc1 [SPE_K82164249] | -13.9%
8 | COc1ccc(C(=O)/C(Cc2cc(OC)c(OC)c(OC)c2)=C(\C(=O)O)c2ccc3c(c2)OCO3)cc1 [SPE_K13826399] | 12.9%
9 | CNc1ncc2cc(-c3cc(NC(=O)NCCC(C)(C)C)c(F)cc3C)c(C)nc2n1 [SPE_K38385169] | -2.79%
10 | CN(C)C(=O)Oc1cc(OC(=O)N(C)C)cc(C(O)CNC(C)(C)C)c1 (stereo not drawn) [SPE_A17462676] | -4.78%
11 | CCCCN(CCCC)C(=O)CN1C[C@H](c2ccc3c(c2)OCO3)[C@@H](C(=O)O)[C@@H]1c1ccc(OC)cc1 [SPE_K16295392] | -6.93%
12 | O=C(O)C1=CCNCC1 [SPE_K66480997] | -5.88%
13 | COc1cccc(-c2cc(NCc3ccc4c(c3)OCO4)nc(N)n2)c1 [SPE_K42624714] | -1.5%
14 | Nc1nc(OCc2ccccc2)c2nc[nH]c2n1 [SPE_K92041145] | -3.41%
15 | Cc1cc2nc3c(=O)[nH]c(=O)nc-3n(C)c2cc1C=O [SPE_K00486786] | -6.31%
16 | COc1cc2c(cc1OC)-c1cc3ccc(OC)c(OC)c3c[n+]1CC2 [SPE_K58466253] | 0.986%
17 | O=C(NCCN1CCC2(CC1)C(=O)NCN2c1cccc(F)c1)c1ccc2ccccc2c1 [SPE_K93317811] | 113%

Row | SMILES | activation at 10 µM
18 | CCN(C(=O)c1c(O)c2c(Cl)cccc2n(C)c1=O)c1ccccc1 [SPE_K60918217] | -1.53%
19 | CNC(=O)c1cc2c(cn1)[nH]c1ccccc12 [SPE_K61951118] | -1.18%
20 | Oc1c(I)cc(Cl)c2cccnc12 [SPE_K09255212] | 3.03%
21 | C[C@H](O)[C@H](O)[C@H]1CNc2[nH]c(N)nc(=O)c2N1 [SPE_K36859431] | -1.35%
22 | O=C(O)CCCCC(=O)O [SPE_K10656395] | 4.52%
23 | O=C1C=CC[C@@H]2[C@H]3CCCN4CCC[C@@H](CN12)[C@@H]34 [SPE_K66845263] | -5.47%
24 | COC(=O)CCC(=O)CN [SPE_K01292611] | -7.57%
25 | CC(=O)OCC(=O)[C@@]1(O)CC[C@H]2[C@@H]3CCC4=CC(=O)C=C[C@]4(C)[C@@]3(F)[C@@H](O)C[C@@]21C [SPE_K29173907] | -3.84%
26 | c1ccc(-c2n[nH]c3c2oc2ccccc23)cc1 [SPE_K16664969] | -3.59%
27 | Cc1c(CN2CCN(C(=O)[C@H](C)O)CC2)sc2c(N3CCOCC3)nc(-c3cnc(N)nc3)nc12 [SPE_K23228615] | -5.95%
28 | CCc1cc2c(cc1N1CCC(N3CCOCC3)CC1)C(C)(C)c1[nH]c3cc(C#N)ccc3c1C2=O [SPE_K11267252] | 0.894%
29 | CC[C@@H](CO)NC(=O)[C@@H]1C=C2c3cccc4[nH]cc(c34)C[C@H]2N(C)C1 [SPE_K34685430] | -5.04%
30 | CNC(=O)c1c(C)oc2cc(Oc3ncnc4cc(OC)c(OC)cc34)ccc12 [SPE_K70504253] | 8.27%
31 | NS(=O)(=O)c1cc(C(=O)O)cc(N2CCCC2)c1Oc1ccccc1 [SPE_K87990216] | 0.629%
32 | CNCC(=O)O [SPE_K51263939] | -0.786%
33 | CC1CCN(C(c2ccc(F)cc2)c2ccc(C(C)C(=O)O)cc2-c2ccc(C(F)(F)F)cc2)CC1 (stereo not drawn) [SPE_A66521565] | -6.16%
